Source: US20220145304A1, “MODIFIED MICRORNAS AND THEIR USE IN THE TREATMENT OF CANCER” (The Research Foundation for The State University of New York, priority 2019, published 2022)
pIC50: −log10 of the molar value. “And” between values parts separate entries of the source, which are not always exact repeats. Equal entries are not always repeated. “Also recorded” adds a separate entry of the source.

Experiments:
[1] = test system: ASPC1 pancreatic cancer cells; test: Cell viability assay (WST-1) in ASPC1 pancreatic cancer cells; type: cell-based, human; details: for pIC50: WST-1 dye 6 days after treatment, calculated using CompuSyn
Description: (§1) Cell culture. The human pancreatic cancer cell lines ASPC-1, HS766T, and Panc-1, were obtained from the American Type Culture Collection (ATCC) and maintained in various types of media. Specifically, HS766T and PANC1 cells were cultured in DMEM containing media, and APSC-1 cells were maintained in RPMI medium (Thermo Fischer). Media was supplemented with 10% fetal bovine serum (Thermo Fischer).
(§2) Cell viability assay. Cells were plated 1000 cells per well in 96 well plates. Twenty four hours later cell media was changed to media supplemented with DFBS, with 50, 25, 12.5, 6.25, 3.125 or 1.5625 nM of Control miRNA (Thermo Fischer), miR-194, 5-FU-miR-194, Gem-mIR-194 or 5-FU-Gem-miR-194. 24 hours later media was changed again to fresh media supplemented with DFBS. 6 days after treatment cell number was assessed using WST-1 dye (Roche). Cells were incubated with 10 μl of WST-1 dye per 100 μl of media for 1 hour and absorbance was read at 450 and 630 nm. The optical density (O.D.) was calculated by subtracting the absorbance at 630 nm from that at 450 nm. IC^50 values were calculated using CompuSyn software (ComboSyn, Inc).

SET8 = test: Western immunoblot analysis of miR-194 target SET8 expression; type: cell-based, human; details: 50 nM
Description: as §1
(§3) Western immunoblot analysis. Twenty-four hours prior to transfection 1×10^5 cells were plated in 6 well plates. Cells were either transfected using Oligofectamine (Thermo Fischer) or no transfection vehicle, with 50 nM control miRNA (Thermo Fischer), miR-194 or one of the three miR-194 mimics. Three days following transfection protein was collected in RIPA buffer with protease inhibitor (Sigma). Equal amounts of protein (15 μg), were separated on 10% sodium dodecyl sulfate-polyacrylamide gels as described in Laemmli U K. Nature. 1970; 227(5259) pp. 680-685, the entire contents of which is incorporated herein by reference. Proteins were probed with anti-SET8 or BMI-1 (1:500) (Cell Signaling Technologies) and anti-GAPDH (1:100000) antibodies. Horseradish peroxidase conjugated antibodies against mouse or rabbit (1:5000, Santa Cruz Biotech Inc.) were used as the secondary antibodies. Protein bands were visualized with autoradiography film using SuperSignal West Pico Chemiluminescent Substrate (Thermo Fischer).

[2] = test system: HS766T pancreatic cancer cells; test: Cell viability assay (WST-1) in HS766T pancreatic cancer cells; type: cell-based, human; details: for pIC50: WST-1 dye 6 days after treatment, calculated using CompuSyn
Description: as §1, §2

[3] = test system: PANC1 pancreatic cancer cells; test: Cell viability assay (WST-1) in PANC1 pancreatic cancer cells; type: cell-based, human; details: for pIC50: WST-1 dye 6 days after treatment, calculated using CompuSyn
Description: as §1, §2

BMI1 = test: Western immunoblot analysis of miR-194 target BMI1 expression; type: cell-based, human; details: 50 nM
Description: as §1, §3

[4] = Toxicity in mice treated in the pancreatic cancer metastasis model; type: in vivo; details: mouse; 80 μg intravenous injection every other day for two weeks
Description: (§4) Mouse subcutaneous tumor implantation model. For in vivo miRNA delivery experiments, pancreatic cancer cells were created that expressed the lenti-luc reporter gene by infecting parental pancreatic cancer cells with a recombinant lentivirus. Luciferase-expressing HS766T cells (2.0×10^6 cells per mouse) were suspended in 0.1 mL of PBS solution and was injected through tail vein of each mouse. Four days after injection of pancreatic cancer cells, mice were treated via tail vein injection with 80 μg of negative control or modified miR(s) packaged with in vivo-jet PEI (Polyplus Transfection). Mice were treated every other day for 2 weeks (8 times). Following treatment, mice were screened using IVIS Spectrum In vivo Imaging System (IVIS) (PerkinElmer).

[5] = test system: Luciferase-expressing HS766T cells; test: Pancreatic cancer metastasis mouse model (tail vein injection, IVIS imaging); type: in vivo; details: 80 μg intravenous injection every other day for two weeks, started four days after establishing metastasis, versus negative control microRNA
Description: as §4

[6] = in the presence of a transfection agent (Oligofectamine), three days following transfection, FIG. 2A
[7] = no transfection vehicle, three days, FIG. 2B
[8] = in the presence of a transfection agent (Oligofectamine), three days following transfection, FIG. 2C
[9] = no transfection vehicle, three days, FIG. 2D

| Substance | pIC50 [1] | SET8 protein expression (Western blot) (SET8; [6]) | SET8 protein expression (Western blot) (SET8; [7]) | pIC50 [2] | pIC50 [3] | BMI1 protein expression (Western blot) (BMI1; [8]) | BMI1 protein expression (Western blot) (BMI1; [9]) | pancreatic cancer cell viability (in words) ([1]; 1.5625-50 nM, FIG. 3A) | pancreatic cancer cell viability (in words) ([2]; 1.5625-50 nM, FIG. 3C) | toxicity in treated mice [4] | metastatic pancreatic cancer growth ([5]; FIG. 4) | metastatic pancreatic cancer growth ([5]; FIG. 4, listed as SEQ ID NO: 2) | metastatic pancreatic cancer growth ([5]; FIG. 4, listed as SEQ ID NOs: 2) | pancreatic cancer cell viability (in words) ([3]; 1.5625-50 nM, FIG. 3B) |
| --- | --- | --- | --- | --- | --- | --- | --- | --- | --- | --- | --- | --- | --- | --- |
| 5-FU-miR-194 (NGNAACAGCAACNCCANGNGGA; 5-FU replacing U; fluorouracil modified miR-194 with a fluorouracil molecule at positions 1, 3, 13, 17 and 19; (1)..(1) N is Fluorouracil molecule; (3)..(3) N is Fluorouracil molecule; (13)..(13) N is Fluorouracil molecule; (17)..(17) N is Fluorouracil molecule; (19)..(19) N is Fluorouracil molecule) | 8.22 | more potent than unmodified (control) miR-194 | retain the ability to inhibit SET8 | 7.58 | 7.80 and 7.78 | more potent than unmodified (control) miR-194 | retain the ability to inhibit | – | – | – | – | – | – | – |
| Gem-miR-194: modified miR-194, all 5 cytosine bases in the guide strand replaced by gemcitabine: UGUAANAGNAANUNNAUGUGGA [SEQ ID NO. 2], N is gemcitabine (cytosines replaced by gemcitabine, chemistry not fully specified) | 8.37 | more potent than unmodified (control) miR-194; also recorded: inhibit SET8 and BMI1 | retain the ability to inhibit SET8; also recorded: inhibit SET8 and BMI1 | 8.45 | 8.72 | more potent than unmodified (control) miR-194; also recorded: inhibit SET8 and BMI1 | retain the ability to inhibit; also recorded: inhibit SET8 and BMI1 | reduce pancreatic cancer cell viability | reduce pancreatic cancer cell viability | did not exhibit any toxicity | able to inhibit metastatic pancreatic cancer growth compared to control | inhibiting tumor growth in vivo | able to inhibit metastatic pancreatic cancer growth compared to control | reduce pancreatic cancer cell viability |
| miR-194: unmodified (native) miR-194 sequence UGUAACAGCAACUCCAUGUGGA [SEQ ID NO. 1] (unmodified RNA; listed as Homo sapiens) [reference compound] | – | – | – | – | – | – | unable to inhibit target expression | – | – | – | – | – | – | – |
